Laboratory results as given in patent US8097759B2, “Inflammatory cytokine release inhibitor” (Institute of Medicinal Molecular Design, Inc., priority 2000, dated 2012).

Tested on: NF-κB activation
Test: NF-κB activation reporter assay (pNFκB-Luc luciferase) under TNF-α stimulation
Type: cell-based, human
Conditions: HepG2 or HeLa cells, TNF-α 40 ng/ml, 4 hours; for inhibition at 1 µg/mL / inhibition at 10 µg/mL: Homo sapiens, read-out: The rate of inhibitory activity against NF-κB activation (%)
[1] = Concentration of the agent: 1 μg/mL
[2] = Concentration of the agent: 10 μg/mL

The rate of inhibitory activity against NF-κB activation (%) [1] [%] | The rate of inhibitory activity against NF-κB activation (%) [2] [%] | SMILES | inhibition at 1 µg/mL [1] [%] | inhibition at 10 µg/mL [2] [%]
 |  | O=C(Nc1cc(C(F)(F)F)ccc1[N+](=O)[O-])c1cc(Cl)ccc1O [Compound 116] | 86.3 | 96.7
 |  | O=C(Nc1nc(C(F)(F)F)c(-c2ccccc2)s1)c1cc(Br)ccc1O [Compound 206] | 85.1 | 89.4
 |  | O=C(Nc1cc(Cl)cc(Cl)c1)c1ccc(Cl)cc1O [Compound 151] | -42.8 | 71.8
 |  | O=C(Nc1cc(-c2ccccc2)[nH]n1)c1cc(Br)ccc1O [Compound 36, 5-Bromo-2-hydroxy-N-(5-phenylpyrazol-3-yl)benzamide] | 26.6 | 84.7
 |  | O=C(Nc1cc(C(F)(F)F)ccc1Cl)c1cc(Br)ccc1O [Compound 114] | 88.9 | 94.1
 |  | COc1ccc(CCC(=O)c2cc(Cl)ccc2O)cc1 [Compound 5, 1-(5-Chloro-2-hydroxyphenyl)-3-(4-methoxyphenyl)propan-1-one] | 33.3 | 98
 |  | O=C(Nc1cccc(C(F)(F)F)c1F)c1cc(Cl)ccc1O [Compound 107] | 92.3 | 95
 |  | O=C(Nc1ccc(Cl)cc1)c1cc(Br)ccc1O [Compound 141] | 83.3 | 96.4
 |  | O=C(Nc1cc(C(F)(F)F)cc(C(F)(F)F)c1)c1ccc(O)c(C(=O)Nc2cc(C(F)(F)F)cc(C(F)(F)F)c2)c1 [Compound 82] | -8.7 | 94.5
 |  | COc1cc(Cl)nc(NC(=O)c2cc(Cl)ccc2O)n1 [Compound 43, 5-Chloro-N-(6-chloro-4-methoxypyrimidin-2-yl)-2-hydroxybenzamide] | 25.5 | 78.9
 |  | CCc1nc(NC(=O)c2cc(Br)ccc2O)sc1-c1ccccc1 [Compound 192] | 28.8 | 87.6
 |  | O=C(Nc1cc(C(F)(F)F)cc(C(F)(F)F)c1)c1cc([N+](=O)[O-])ccc1O [Compound 53] | 92 | 99.2
 |  | O=C(Nc1ccc(C(F)(F)F)cc1Cl)c1cc(Br)ccc1O [Compound 129] | 75.4 | 85.8
 |  | COc1cc(NC(=O)c2cc(Br)ccc2O)cc(C(F)(F)F)c1 [Compound 122] | 84.5 | 97.2
 |  | O=C(Nc1c(F)c(F)c(F)c(F)c1F)c1cc(Cl)ccc1O [Compound 157] | 86.2 | 98.1
 |  | O=C(Nc1cc(C(F)(F)F)ccc1N1CCOCC1)c1cc(Br)ccc1O [Compound 127] | 81.8 | 86.4
 |  | COc1ccc(O)c(C(=O)Nc2cc(C(F)(F)F)cc(C(F)(F)F)c2)c1 [Compound 77] | 30.7 | 97
 |  | O=C(Nc1ccc(C(F)(F)F)cc1)c1cc(Cl)ccc1O [Compound 128] | 87.2 | 95
 |  | O=C(Nc1cc(C(F)(F)F)cc(C(F)(F)F)c1)c1cc(C(F)(F)C(F)(F)F)ccc1O [Compound 70] | 93.3 | 95.4
 |  | O=C(Nc1cc(F)cc(C(F)(F)F)c1)c1cc(Cl)ccc1O [Compound 110] | 94.7 | 98.9

The rate of inhibitory activity against NF-κB activation (%) [1] [%] | The rate of inhibitory activity against NF-κB activation (%) [2] [%] | SMILES | inhibition at 1 µg/mL [1] [%] | inhibition at 10 µg/mL [2] [%]
 |  | Cc1ccc(O)c(C(=O)Nc2cc(Cl)cc(Cl)c2)c1 [Compound 153] | 49.1 | 88.7
 |  | COCc1ccc(C(=O)C=Cc2ccc3c(c2)OCCCO3)c(O)c1 [Compound 8, 3-(3,4-Dihydro-2H benzo[b][1,4]dioxepin-7-yl)-1-[2-hydroxy-4-(methoxylmethyl)phenyl]propen-1-one] | 35.3 | 59.9
 |  | O=C(Nc1nc(-c2ccccc2)cs1)c1cc(Br)ccc1O [Compound 202] | -41.8 | 78.8
 |  | O=C(O)Cc1sc(NC(=O)c2cc(Br)ccc2O)nc1-c1ccccc1 [Compound 203] | 2.4 | 72.1
36.7 | 65.8 | CC(=O)Oc1ccc(Cl)cc1C(=O)Nc1cc2ccccc2[nH]1 [Compound 44, 2-Aceoxy-5-chloro-N-(indol-2-yl)benzamide] |  | 
 |  | CC(=O)c1cccc(NC(=O)c2cc(Cl)ccc2O)c1 [Compound 169] | 14.5 | 88.1
 |  | O=C(Nc1ccc(Cl)c(Cl)c1)c1cc(Br)ccc1O [Compound 143] | 91.6 | 93.8
 |  | O=C(Nc1cc(C(F)(F)F)cc(C(F)(F)F)c1)c1cc(-n2cccc2)ccc1O [Compound 71] | 93.8 | 97.9
 |  | COc1ccc(O)c(C(=O)Nc2cc(Cl)cc(Cl)c2)c1 [Compound 154] | -31 | 48.2
 |  | COc1cc(NC(=O)c2cc(Br)ccc2O)cc(OC)c1 [Compound 168] | 38.3 | 96.8
 |  | O=C(Nc1cc(C(F)(F)F)ccc1Cl)c1cc(Cl)cnc1O [Compound 25, N-[2-Chloro-5-(trifluoromethyl)phenyl]-5-chloro-2-hydroxynicotinamide] | 85.4 | 86.9
 |  | C#Cc1ccc(O)c(C(=O)Nc2cc(C(F)(F)F)cc(C(F)(F)F)c2)c1 [Compound 64] | 53.3 | 90.1
 |  | CC(=O)Oc1ccc(Cl)cc1C(=O)Nc1cc(C(F)(F)F)cc(C(F)(F)F)c1 [Compound 96] | 96.5 | 99.2
−7.1 | 63.8 | O=S(=O)(Nc1cc(Cl)ccc1O)c1cc(Cl)cc(Cl)c1 [Compound 13, N-(5-Chloro-2-hydroxyphenyl)-3,5-dichlorobenesulfonamide] |  | 
 |  | Cc1nc(NC(=O)c2cc(Br)ccc2O)sc1-c1cccc(C(F)(F)F)c1 [Compound 190] | -32.4 | 
 |  | CC(C)(C)c1ccc(C(C)(C)C)c(NC(=O)c2cc(Cl)ccc2O)c1 [Compound 159] | 89.1 | 96.3
19.9 | 96.5 | O=C(c1cc(Br)ccc1O)N1CCCc2ccc(C(F)(F)F)cc21 [Compound 17, 1-(5-Bromo-2-hydroxy)benzoyl-7-(trifluoromethyl)-1,2,3,4-tetrahydroquinoline] |  | 
 |  | O=C(Nc1cc(C(F)(F)F)cc(C(F)(F)F)c1)c1ccc(Cl)cc1O [Compound 98] | 90.5 | 98.2
 |  | O=C(Nc1cnc2ccccc2c1)c1cc(Cl)ccc1O [Compound 46, 5-Chloro-2-hydroxy-N-(quinolin-3-yl)benzamide] | -43.7 | 85.7

SMILES | The rate of inhibitory activity against NF-κB activation (%) [1] [%] | The rate of inhibitory activity against NF-κB activation (%) [2] [%] | inhibition at 1 µg/mL [1] [%] | inhibition at 10 µg/mL [2] [%]
O=C(Nc1ccc(S(=O)(=O)F)cc1)c1ccc2ccccc2c1O [Compound 22, {[(1-Hydroxynaphthalen-2-yl)carbonyl]amino}benzenesulfonyl fluoride] | 37.0 | 92.9 |  | 
CC(=O)Oc1ccccc1C(=O)Nc1cc(C(F)(F)F)cc(C(F)(F)F)c1 [Compound 95, 2-Acetoxy-[3,5-bis(trifluoromethyl)phenyl]benzamide] | 90.9 | 97.1 |  | 
